# Target: T1, Lp-PLA2 (Homo sapiens, UniProt Q13093)
# T1 construct: aliquoted and thawed 40 μL of pooled human plasma was previously added; from tissue; host or cells: pooled human plasma
# T1 sequence (Q13093 22-441): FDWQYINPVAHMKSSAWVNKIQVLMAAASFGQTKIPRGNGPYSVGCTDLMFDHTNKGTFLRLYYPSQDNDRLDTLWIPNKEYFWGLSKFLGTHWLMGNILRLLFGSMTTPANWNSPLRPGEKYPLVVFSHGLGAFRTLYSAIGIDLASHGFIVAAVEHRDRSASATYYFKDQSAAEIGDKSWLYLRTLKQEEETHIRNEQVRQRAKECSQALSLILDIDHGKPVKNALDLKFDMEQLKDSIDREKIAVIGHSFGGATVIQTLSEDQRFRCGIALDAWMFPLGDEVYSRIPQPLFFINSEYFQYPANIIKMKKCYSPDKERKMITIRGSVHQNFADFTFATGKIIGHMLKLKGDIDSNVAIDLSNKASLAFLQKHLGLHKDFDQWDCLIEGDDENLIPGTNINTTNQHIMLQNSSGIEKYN
# Test: Lipoprotein-associated phospholipase A2 (Lp-PLA2) human plasma assay (Thio-PAF assay)
# Type: biochemical
# Conditions: Lp-PLA2 human plasma assay (Thio-PAF), pooled human plasma, 30-min pre-incubation at room temperature
row,Compound,IC50
1,O=c1nc(OCc2ccc(Oc3ccnc(C(F)(F)F)c3)c(F)c2)cc2n1C[C@@]13C[C@@H](CN21)N(C1COC1)C3 [Example 172],2.2 nM
2,O=C(c1ccccc1)N1C[C@]23C[C@H]1CN2c1cc(OCc2ccc(Oc4ccnc(C(F)(F)F)c4)c(F)c2)nc(=O)n1C3 [Example 174],5 nM
3,"COc1c(NCc2ccc(F)c(F)c2)nc(=O)n2c1N1C[C@@H]3C[C@]1(CO3)C2 [Example 175, (3S,11aR)-7-((3,4-Difluorobenzyl)amino)-6-methoxy-3,4-dihydro-1H,9H,11H-3,11a-methanopyrimido[6′, 1′:2, 3]imidazo[5,1-c] [1, 4]oxazin-9-one]",168 nM
4,"O=c1nc(OCc2cc(F)c(Oc3ccnc(C(F)F)c3)c(F)c2)cc2n1CC13CC(CN21)C3 [Example 176, 3-((4-((2-(difluoromethyl)pyridin-4-yl)oxy)-3,5-difluorobenzyl)oxy)-7,8-dihydro-1H,6H, 9H-7,8a-methanopyrrolo[1′,2′:3,4]imidazo [1,2-c]pyrimidin-1-one]",13.9 nM
5,"O=c1nc(OCc2ccc(Oc3ccnc(C(F)(F)F)c3)c(F)c2)cc2n1C[C@@]13C[C@@H](CN21)N(C1CCC1)C3 [Example 177, (3S,11aS)-2-cyclobutyl-7-((3-fluoro-4-((2-(trifluoromethyl)pyridin-4-yl)oxy)benzyl)oxy)-1,2,3,4-tetrahydro-9H,11H-3,11a-methano-pyrazino[l′,2′:3,4]imidazo[1,2-c]pyrimidin-9-one]",5.5 nM
6,"O=c1nc(OCc2ccc(Oc3ccnc(C(F)(F)F)c3)c(F)c2)cc2n1C[C@@]13C[C@@H](CN21)N(Cc1ccccc1)C3 [Example 178, (3S,11aS)-2-benzyl-7-((3-fluoro-4-((2-(tri-fluoromethyl)pyridin-4-yl)oxy)benzyl)oxy)-1,2,3,4-tetrahydro-9H,11H-3,11a-methano-pyrazino[1′,2′:3,4]imidazo[1,2-c]pyrimidin-9-one]",6.2 nM
7,O=c1nc(OCc2cc(F)c(Oc3cccc(C(F)F)c3)c(F)c2)cc2n1C[C@]13CO[C@H](CN21)C3 [Example 179],4.1 nM
8,COc1c(N(C)Cc2ccc(F)c(F)c2)nc(=O)n2c1N1C[C@@H]3C[C@]1(CO3)C2 [Example 180],87.2 nM
9,"COc1c(OCCc2ccc(Oc3cccc(C(F)(F)F)c3)cc2)nc(=O)n2c1N1CC3CC1(C3)C2 [Example 184, 4-methoxy-3-(4-(3-(trifluoromethyl)phenoxy)phenethoxy)-7,8-dihydro-1H,6H,9H-7,8a-methanopyrrolo[1′,2′:3,4]imidazo[1,2-c] pyrimidin-1-one]",23.8 nM
10,COc1c(OCCc2ccc(Oc3ccnc(C(F)(F)F)c3)cc2)nc(=O)n2c1N1CC3CC1(C3)C2 [Example 188],9.2 nM
11,"COc1c(OCCc2cc(F)c(Oc3ccnc(C(F)(F)F)c3)c(F)c2)nc(=O)n2c1N1CC3CC1(C3)C2 [Example 189, 3-(3,5-difluoro-4-((2-(trifluoromethyl)pyridin-4-yl)oxy)phenethoxy)-4-methoxy-7,8-dihydro-1H,6H,9H-7,8a-methanopyrrolo[1′,2′:3,4] imidazo[1,2-c] pyrimidin-1-one]",8.6 nM
12,N#Cc1cc(COc2cc3n(c(=O)n2)C[C@]24CO[C@H](CN32)C4)ccc1F [Example 193],5.2 nM
13,"O=c1nc(OCc2cc(F)c(Oc3cccc(C(F)(F)F)c3)c(F)c2)cc2n1C[C@]13CO[C@H](CN21)C3 [Example 194, (3S,11aR)-7-((3,5-difluoro-4-(3-(trifluoro-methyl)phenoxy)benzyl)oxy)-3,4-dihydro-1H,9H,11H-3,11a-methanopyrimido[6′,1′:2,3] imidazo[5,1-c][1,4]oxazin-9-one]",4 nM
14,"O=c1nc(OCCc2ccc(F)c(F)c2)cc2n1C[C@]13CO[C@H](CN21)C3 [Example 195, (3S,11aR)-7-(3,4-difluorophenethoxy)-3,4-dihydro-1H,9H,11H-3,11a-methano-pyrimido[6′,1′:2,3]imidazo[5,1-c][l,4]oxazin-9-one]",62.7 nM
15,O=c1nc(OCc2ccc(Oc3ccnc(C(F)F)c3)c(F)c2)cc2n1CC13CCC(CC1)N23 [Example 196],15.4 nM
16,"Cn1ccc(CN2C(=O)[C@]34C[C@H]2CN3c2cc(OCc3ccc(Oc5ccnc(C(F)(F)F)c5)c(F)c3)nc(=O)n2C4)n1 [Example 197, (3S,11aR)-7-((3-fluoro-4-((2-(trifluoromethyl)pyridin-4-yl)oxy)benzyl)oxy)-2-((1-methyl-1H-pyrazol-3-yl)methyl)-3,4-dihydro-9H, 11H-3,11a-methanopyrazino[1′2′:3,4]imidazo [1,2-c]pyrimidin-1,9(2H)-dione]",2.9 nM
17,"O=C1N(CC23CC(C2)C3)[C@@H]2CN3c4cc(OCc5ccc(Oc6ccnc(C(F)(F)F)c6)c(F)c5)nc(=O)n4C[C@]13C2 [Example 198, (3S,11aR)-2-(bicyclo[1.1.1]pent-1-ylmethyl)-7-((3-fluoro-4-((2-(trifluoromethyl)pyridin-4-yl)oxy)benzyl)oxy)-3,4-dihydro-9H,11H-3,11a-methanopyrazino[1′,2′:3,4]imidazo [1,2-c]pyrimidin-1,9(2H)-dione]",5.1 nM
18,"O=C(NCc1ccccc1)C12CN3c4cc(OCc5ccc(Oc6ccnc(C(F)(F)F)c6)c(F)c5)nc(=O)n4CC3(C1)C2 [Example 199, N-benzyl-3-((3-fluoro-4-((2-(trifluoromethyl)pyridin-4-yl)oxy)benzyl)oxy)-1-oxo-1H,6H, 9H-7,8a-methanopyrrolo[1′,2′:3,4]imidazo [1,2-c]pyrimidine-7(8H)-carboxamide]",7.9 nM
19,"N#CC12CN3c4cc(OCc5ccc(Oc6ccnc(C(F)(F)F)c6)c(F)c5)nc(=O)n4CC3(C1)C2 [Example 200, 3-((3-fluoro-4-((2-(trifluoromethyl)pyridin-4-yl)oxy)benzyl)oxy)-1-oxo-1H,6H,9H-7,8a-methanopyrrolo[1′,2′:3,4]imidazo[1,2-c] pyrimidine-7(8H)-carbonitrile]",4.4 nM

# The remaining lines, values ahead:
row,IC50,Compound
1,2.1 nM,"CN1C[C@]23C[C@H]1CN2c1cc(OCc2ccc(Oc4ccnc(C(F)(F)F)c4)c(F)c2)nc(=O)n1C3 [Example 171, (3S,11aS)-7-((3-Fluoro-4-((2-(trifluoromethyl)pyridin-4-yl)oxy)benzyl)oxy)-2-methyl-1,2,3,4-tetrahydro-9H,11H-3,11a-methanopyrazino[1′, 2′:3, 4]imidazo[1,2-c]pyrimidin-9-one]"
2,3.4 nM,O=c1nc(OCc2ccc(Oc3ccnc(C(F)(F)F)c3)c(F)c2)cc2n1C[C@@]13C[C@@H](CN21)N(CC(F)(F)F)C3 [Example 173]
3,6.7 nM,"O=c1nc(OCCc2ccc(Oc3cccc(C(F)(F)F)c3)c(F)c2)cc2n1C[C@]13CO[C@H](CN21)C3 [Example 181, (3S,11aR)-7-(3-fluoro-4-(3-(trifluoromethyl)phenoxy)phenethoxy)-3,4-dihydro-1H,9H, 11H-3,11a-methanopyrimido[6′,1′:2,3]imidazo [5,1-c][1,4]oxazin-9-one]"
4,9.4 nM,"O=c1nc(OCCc2ccc(Oc3cccc(C(F)(F)F)c3)c(F)c2)cc2n1CC13CC(CN21)C3 [Example 182, 3-(3-fluoro-4-(3-(trifluoromethyl)phenoxy)phenethoxy)-7,8-dihydro-1H,6H,9H-7,8a-methanopyrrolo[1′,2′:3,4]imidazo[1,2-c] pyrimidin-1-one]"
5,13.8 nM,"COc1c(OCCc2ccc(Oc3cccc(C(F)(F)F)c3)c(F)c2)nc(=O)n2c1N1CC3CC1(C3)C2 [Example 183, 3-(3-fluoro-4-(3-(trifluoromethyl)phenoxy)phenethoxy)-4-methoxy-7,8-dihydro-1H,6H, 9H-7,8a-methanopyrrolo[1′,2′:3,4]imidazo [1,2-c]pyrimidin-1-one]"
6,4.7 nM,O=c1nc(OCCc2ccc(Oc3ccc(Cl)c(C(F)(F)F)c3)c(F)c2)cc2n1C[C@]13CO[C@H](CN21)C3 [Example 185]
7,7.4 nM,"O=c1nc(OCCc2ccc(Oc3ccc(Cl)c(C(F)(F)F)c3)c(F)c2)cc2n1CC13CC(CN21)C3 [Example 186, 3-(4-(4-chloro-3-(trifluoromethyl)phenoxy)-3-fluorophenethoxy)-7,8-dihydro-1H,6H,9H-7,8a-methanopyrrolo[1′,2′:3,4]imidazo[1,2-c] pyrimidin-1-one]"
8,7.8 nM,"COc1c(OCCc2ccc(Oc3ccc(Cl)c(C(F)(F)F)c3)c(F)c2)nc(=O)n2c1N1CC3CC1(C3)C2 [Example 187, 3-(4-(4-chloro-3-(trifluoromethyl)phenoxy)-3-fluorophenethoxy)-4-methoxy-7,8-dihydro-1H,6H,9H-7,8a-methanopyrrolo[1′,2′:3,4] imidazo[1,2-c]pyrimidin-1-one]"
9,5.9 nM,"O=c1nc(OCCc2ccc(Oc3ccnc(C(F)(F)F)c3)c(F)c2)cc2n1CC13CC(CN21)C3 [Example 190, 3-(3-fluoro-4-((2-(trifluoromethyl)pyridin-4-yl)oxy)phenethoxy)-7,8-dihydro-1H,6H,9H-7,8a-methanopyrrolo[1′,2′:3,4]imidazo[1,2-c] pyrimidin-1-one]"
10,6.2 nM,"COc1c(OCCc2ccc(Oc3ccnc(C(F)(F)F)c3)c(F)c2)nc(=O)n2c1N1CC3CC1(C3)C2 [Example 191, 3-(3-fluoro-4-((2-(trifluoromethyl)pyridin-4-yl)oxy)phenethoxy)-4-methoxy-7,8-dihydro-1H,6H,9H-7,8a-methanopyrrolo[1′,2′:3,4] imidazo[1,2-c]pyrimidin-1-one]"
11,6.3 nM,O=c1nc(OCc2ccc(Oc3cccc(C(F)(F)F)c3)c(F)c2)cc2n1C[C@]13CO[C@H](CN21)C3 [Example 192]
